For 88 molecules, melting point results are on record in a melting point compilation (Tetko et al.; mined from patent text by program, amines drawn as free bases though some values may be those of a salt).

A value given as a limit tells only on which side of the number the result lay.

Usually melting point stands for the temperature, or range, at which the solid turns liquid.

`CCN1C(=O)C(C)(C)C(=O)N(C)c2cc(CN(CCn3ccc4occc4c3=O)Cc3cc(C)nn3C)ccc21`: the melting point lay within 161 to 165 °C.

Molecule `CC(C)(C)OC(=O)c1ccc(C=NON)cc1` returned a melting point of 153 to 155 °C.

The molecule `O=C(OCCc1c(-c2ccccc2)n2nnnc2n2ncnc12)C12CC3CC(CC(C3)C1)C2` had a melting point of 129 to 130 °C.

Molecule `COCCOc1ccc(CCC(=O)NS(=O)(=O)c2ccc(F)cc2)c(Oc2ncc(C(F)(F)F)cc2Cl)c1` gave a melting point of 136 to 138 °C.

In turn, `Nc1cc(N2C(=O)COc3ccccc32)ccn1` gave a melting point of 189 to 190 °C.

`Nc1ccccc1C(=O)OCN1C(=O)c2ccccc2C1=O` returned a melting point of 160 to 162 °C.

In the case of `CC(=O)NC[C@H]1CN(c2ccc(C(=O)c3cnc4ncccn34)cc2)C(=O)O1`, the melting point lay in the range of 257 to 260 °C.

Regarding `COc1ccc(C(=O)Nc2ccc3oc4c(c3c2)CCCC4)cc1`, the melting point lay within 197 to 198 °C.

On to `Nc1ccc([N+](=O)[O-])cc1S(N)(=O)=O`, for which the melting point was in the range of 202 to 204 °C.

On to `CC(C)(C)OC(=O)NCCNC(=O)c1cccc(Br)n1`, for which the melting point was 108 to 109 °C.

With `O=C1Nc2cccnc2C(=O)N2CCCC12` (stereo not drawn), the melting point fell in the range of 249 to 250 °C.

Molecule `CCOC(=O)c1cnc(O)nc1NCc1ccc(OC)c(Cl)c1` showed a melting point of 117 to 122 °C.

Take `COC(=O)C1N(c2c(C)cccc2C)C(=N)C(C)N1c1c(C)cccc1C` (stereo not drawn): the melting point fell in the range of 141 to 142 °C.

Take `CN=c1c2c(C)c(C)n(-c3ccccc3)c2nc(C)n1C`: the melting point lay in the range of 132 to 133 °C.

In turn, `CCCCCCC(=O)Nc1cccc2c1C(=O)N(C1CCC(=O)NC1=O)C2=O` (stereo not drawn) gave a melting point of 200 to 202 °C.

Molecule `COc1ccc(Cn2nnnc2C(=O)Nc2cc(OCCCOc3ccc(C(C)=O)c(O)c3CCC(F)(F)F)c(Br)cc2C)cc1` gave a melting point of 140 to 142 °C.

Take `CCOC(=O)c1c(C(F)(F)F)[nH]cc(-c2cc(OC(C)C)c(Cl)cc2F)c1=O`: the melting point fell in the range of 118 to 119 °C.

In turn, `CCOC(=O)c1c(Cl)c2cnccc2[nH]c1=O` came in with a melting point of 219 °C.

For `CCN(CC)CCSC1=C(C#N)C(c2ccccn2)(c2ccccn2)C(=O)N1`, the melting point was 135 to 136 °C.

Consider `O=S1CCN(c2nc(N3CCOCC3)nc(-n3c(C(F)F)nc4ccccc43)n2)CC1`, for which the melting point was 225 to 226 °C.

For `CC(CO)(CO)NCc1c2ccccc2cc2cc3ccccc3cc12`, the melting point fell in the range of 198 to 199 °C.

For the molecule `COc1ccc(CNc2nnc(Cl)c3cc([N+](=O)[O-])ccc23)cc1Cl`, the melting point fell in the range of 179 to 180 °C.

The molecule `Cc1c(Cc2cccc(C(F)(F)F)c2)sc2c(-c3cccc(C(=O)NCCO)c3)cccc12` yielded a melting point of 140 to 145 °C.

`N#Cc1cnn(-c2c(Cl)cc(C(F)(F)F)cc2Cl)c1N` came in with a melting point of 165 to 167 °C.

Turning to `CC(C)C[C@H](NC(=O)[C@H](CC(=O)OC(C)(C)C)Cc1ccccc1)C(=O)N[C@@H](CC(C)C)[C@@H](O)c1nccs1`, the melting point lay in the range of 162 to 163 °C.

Molecule `O=C1c2cc(C(=O)N3CCCCC3)ccc2-c2ccc(C(=O)N3CCCCC3)cc21` registered a melting point of 94.5 to 95.5 °C.

In turn, `O=C(/C=C/c1c(F)cccc1Cl)/C=C/c1c(F)cccc1Cl` showed a melting point of 144 °C.

Take `CCn1cc(C(=O)O)c(=O)c2cc(F)c(N3CCN(C)C(c4ccco4)C3)cc21` (stereo not drawn): the melting point is 209 to 212 °C.

In turn, `CC(C)(OCc1cc2cc(C(F)(F)F)ccc2n1S(=O)(=O)c1ccc2c(c1)OCO2)C(=O)O` came in with a melting point of 130 to 132 °C.

`COC(=O)c1ccc(OC(=O)c2ccccc2)cc1O` returned a melting point of 103 °C.

`COc1c(C)c(N2CCN(c3ccc(F)cc3)CC2)c(C)c2c1OC(C)(C)C2` came in with a melting point of 137 to 139 °C.

In turn, `CC(C)c1cn(C)cc(-c2ccc(Cl)c(C(F)(F)F)c2)c1=O` gave a melting point of 85 to 87 °C.

Molecule `CC(C)(C)c1ncncc1C(=O)c1ccc(Cl)cc1` showed a melting point of 75 to 77 °C.

For the molecule `COc1ccc(CCN(C)C)c2[nH]c(=S)[nH]c12`, the melting point lay in the range of 213 to 216 °C.

The molecule `CCOC(=O)c1[nH]c(C)c(C)c1CC(C)C` had a melting point of 109 to 111 °C.

The molecule `CC(C)c1nc(Sc2ccc(CCC(=O)O)cc2)c(C(=O)O)n1Cc1cc2c(cc1Cl)OCO2` came in with a melting point of 198 °C.

Consider `CCOC(=O)Cn1c(=O)c(=O)[nH]c2ccc3ccc(N)cc3c21`, for which the melting point is more than 250 °C.

Turning to `CC(=O)N1C(C)(C)CC(O)CC1(C)C`, the melting point was in the range of 102 to 104 °C.

`COc1ccc(-c2c(C)c3cc(OC)ccc3n2CCCCCCBr)cc1` registered a melting point of 60 °C.

As for `O=C(O)C(CC1CCCCC1)c1ccc(OCc2ccc3ccccc3n2)cc1` (stereo not drawn), the melting point lay in the range of 148 to 150 °C.

As to `Cn1ccc(COc2nn3c(-c4ccccc4F)nnc3cc2C2CCC2)n1`, the melting point is 184 to 186 °C.

`CCOC(=O)CC(NC(=O)C(C)C)C(=O)c1ccco1` (stereo not drawn) had a melting point of 65 to 67 °C.

Consider `CCN1CCc2nc(Nc3cc(-c4cc(F)cc(C5NCCc6c5sc5c6CC(C)(C)C5)c4CO)cn(C)c3=O)ccc2C1` (stereo not drawn), for which the melting point lay within 134 to 135 °C.

The molecule `CC1=C(C(N)=O)C(c2cccc([N+](=O)[O-])c2)n2ccnc2N1` (stereo not drawn) had a melting point of 238 to 240 °C.

Consider `CC#CC(O)(C#CC)c1cc(-c2cccc(Cl)c2)ccc1N`, for which the melting point is 112 to 114 °C.

In turn, `COc1ccc2c(c1)N1CCOCC1CN=C2c1ccco1` (stereo not drawn) displayed a melting point of 130 to 132 °C.

`CCCCCCC(CCC)OC1(C(C)=O)C=CC=CC1` (stereo not drawn) showed a melting point of 38 to 39 °C.

`CCCCn1c(=O)[nH]c2cccc(OCC3CO3)c21` (stereo not drawn) showed a melting point of 226 to 227 °C.

Regarding `C#CCN1C(=O)CCc2cc(F)c(-n3nc4ccc(Cl)cn4c3=O)cc21`, the melting point fell in the range of 200 to 202 °C.

Consider `O=C1C(=O)c2ccccc2C2=C1SCC1(CCN(C(=O)CSc3ccccc3)CC1)O2`, for which the melting point was 155 to 157 °C.

With `COCCOc1cccc(-c2ccnc3c(C(=O)c4cccs4)cnn23)c1`, the melting point lay in the range of 112 to 116 °C.

In turn, `Fc1ccc(C23COC(c4ccc(Cl)cc4)(OC2)OC3)cc1` came in with a melting point of 251 to 252 °C.

`CCCCCCCCCC(C)NC(=O)C=Cc1cccc([N+](=O)[O-])c1` (stereo not drawn): the melting point lay in the range of 81 to 83 °C.

Regarding `O=C(Nc1ccc(Sc2ccncc2)cc1)c1ccc([N+](=O)[O-])cc1`, the melting point is 295 to 298 °C.

`CCCCc1oc2ccccc2c1C(=O)Nc1ccc2cc(OCc3nn[nH]n3)ccc2c1` returned a melting point of 194 to 198 °C.

`CN1C(=O)C(C)(C)C(=O)N(C)c2cc(C(=O)O)ccc21`: the melting point was more than 275 °C.

The molecule `COC(=O)c1c(SCc2ccc(OC)cc2)nc(C)n1Cc1cc2c(cc1Cl)OCO2` displayed a melting point of 169 °C.

`N#Cc1cccc(-c2cnn(-c3ccccn3)c2)c1` registered a melting point of 160 to 161 °C.

Molecule `CC(C)=C1OC(=O)N(c2ccc(C)cc2)C1=O` showed a melting point of 136 °C.

Consider `CC1=CC(=O)c2cc(O)ccc2C1=O`, for which the melting point was found to be 175 °C.

For the molecule `O=[N+]([O-])c1cccc(-c2nc(Nc3ccccc3)cc3cccnc23)c1`, the melting point lay in the range of 158 to 160 °C.

Turning to `Cc1c(NC(=O)c2ccc(-c3ccccc3)cc2F)ccc2cc(CN3CCCCCC3)cnc12`, the melting point was 151 to 153 °C.

In turn, `CC(C)(C)c1cccc(C(=O)O)c1` came in with a melting point of 96 to 97 °C.

For the molecule `CC(=O)Nc1nc(OCc2cccs2)ncc1F`, the melting point was 134 to 136 °C.

For the molecule `COCc1ccoc1C(=O)c1[nH]c2cc(Cl)ccc2c1CC(=O)O`, the melting point lay within 212 to 213 °C.

With `CCOCCS(=O)(=O)c1c(Cl)nc(Cl)nc1Cl`, the melting point was in the range of 133 to 134 °C.

The molecule `CSc1coc2cc(NS(C)(=O)=O)c(Oc3ccccc3)cc2c1=O` came in with a melting point of 175 to 176 °C.

`CN(C)C(=O)C1CCC2C(=O)N(c3ccccc3)C(=O)N12` (stereo not drawn) had a melting point of 172 to 174 °C.

`CNc1nnc(-c2ccc3occ(-c4cccc(OC(F)(F)F)c4)c3c2)o1` gave a melting point of 169 to 170 °C.

On to `CC(=O)N1CCN(c2ccc(-c3ccn[nH]3)cc2)CC1`, for which the melting point lay within 257 to 259 °C.

Molecule `COC(=O)c1cn(-c2ccc(C3=NOC(NC(C)=O)C3)cc2F)nn1` (stereo not drawn) showed a melting point of 221 °C.

`COCCOc1ccc(CCC(=O)N(CCOC)S(N)(=O)=O)c(Oc2ncc(C(F)(F)F)cc2Cl)c1` registered a melting point of 101 °C.

Consider `O=c1cc(-c2ccc(O)cc2)oc2ccc(CO)cc12`, for which the melting point was 246 to 247 °C.

`CCOC(=O)N1CCN(c2nc(N)ccc2[N+](=O)[O-])CC1` registered a melting point of 132 to 134 °C.

Molecule `CCCc1ccc(OCCC(C)C)c2c(=O)cc(-c3nnn[nH]3)oc12` had a melting point of 199 to 200 °C.

The molecule `CC(C)(O)[C@@H](N)c1ccc2ccccc2c1` returned a melting point of 77 to 78 °C.

`CN1CCN(c2ccccc2C=C2CCCN(c3ccc(Cl)cc3)C2=O)CC1` gave a melting point of 177 to 178 °C.

In turn, `Cc1cccc2cc3c(=O)n(CC(F)(F)F)cc(C(=O)NCCN(C)C)c3nc12` gave a melting point of 227 to 230 °C.

On to `CCCCCCCCCCCCCCCCOc1cc(NS(=O)(=O)c2cc([N+](=O)[O-])ccc2N2CCOCC2)c(OC(C)=O)cc1C`, for which the melting point was in the range of 95 to 96 °C.

Turning to `CCOC(=O)CCc1c(C)c(NC(=O)CC(C)(C)C)c(C)c2c1OCC2c1ccc(C(C)C)cc1` (stereo not drawn), the melting point fell in the range of 150 to 151 °C.

In turn, `CC(COc1ccc(-c2ccc(C#N)cc2)cc1)N(O)C=O` (stereo not drawn) showed a melting point of 141 to 144 °C.

As to `CC(C)NS(=O)(=O)c1cc(Br)cc(Br)c1`, the melting point is 105 to 107 °C.

`Cc1nc2n(C)nc(C)n2c(=O)c1CCO` yielded a melting point of 170 °C.

`Cc1c(C(=O)NCc2ccccc2)nc(-n2ccc(OCc3ccccc3)cc2=O)n1C` yielded a melting point of 190 to 191 °C.

On to `N#Cc1cc(C(=O)NN2CCOCC2)ccc1OCC(=O)Nc1ccc(Cl)cn1`, for which the melting point lay in the range of 165 to 167 °C.

Turning to `Cc1cc(-c2ccccc2C)ccc1NC(=O)c1ccc2n1Cc1ccccc1N(C(=O)COc1ccc(Cl)cc1)C2`, the melting point was 159 to 161 °C.

`OCc1nn(-c2ccc(Cl)cc2)c2c1CCCC2` registered a melting point of 125 to 126 °C.

The molecule `C=CCc1c(C)nc(C)c(C(=O)Nc2c(CC)cc(C)cc2CC)c1Cl` came in with a melting point of 192 to 194 °C.
